Test results as given in patent US11492346B2, “Benzisoxazole sulfonamide derivatives” (Pfizer Inc., priority 2019, dated 2022).

How the values were obtained:
[1] = test system: histone H3K23 acetylation in U2OS cells; assay: Histone H3 Lysine 23 Acetylation Biomarker Assay; format: cell-based; conditions: Homo sapiens, 24 hours incubation
Procedure: Compounds were tested for their ability to inhibit acetylation of the histone H3K23 marker in the following assay:
The cell line U2OS was seeded at a density of 9,000 cells per well in 96 well optical quality tissue culture plates in RPMI medium and 10% foetal bovine serum, and allowed to adhere for 24 hours under standard culture conditions (37 degree Celsius, 5% CO2). At the end of this period the medium was aspirated. […] After incubation for 24 hours, the cells were fixed with 3.7% formaldehyde in PBS for 20 minutes at room temperature, washed (5×5 minutes) with phosphate buffer saline containing 0.1% Tween 20 and blocked with Odyssey blocking buffer (LI-COR, Lincoln, Nebr.) containing 0.1% TritonX100. Anti-H3K23ac specific antibody (Abcam ab177275) in Odyssey blocking buffer containing 0.1% Tween 20 was added and incubated for 16 hours at 4 degree Celsius. After washing (as above), a secondary antibody labelled with Alexa647 dye (LifeTechnologies) and Hoechst 33342 (1 μg/mL, SigmaAldrich) were added for 1 hour incubation. Plates were washed as previously and read on a PerkinElmer Phenix high content imaging platform. Using a Columbus image analysis pipeline, individual nuclei were located by Hoechst 33342 stain and the acetylation level was calculated from the Alexa647-related intensity in the same area.

[2] = target: HBO1-KAT7 (Homo sapiens (Human), UniProt O95251); assay: biochemical
Chain of HBO1-KAT7 (O95251 other isoform, or with tags, fused parts or gaps): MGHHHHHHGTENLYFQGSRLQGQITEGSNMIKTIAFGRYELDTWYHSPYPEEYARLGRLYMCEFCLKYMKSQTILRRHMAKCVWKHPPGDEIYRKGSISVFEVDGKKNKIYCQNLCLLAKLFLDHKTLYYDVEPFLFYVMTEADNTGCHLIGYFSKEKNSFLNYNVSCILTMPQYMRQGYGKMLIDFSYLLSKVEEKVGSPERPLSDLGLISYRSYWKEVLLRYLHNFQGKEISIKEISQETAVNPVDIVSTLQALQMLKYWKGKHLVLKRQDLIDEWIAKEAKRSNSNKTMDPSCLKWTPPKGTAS

[3] = target: MOZ-KAT6A (Homo sapiens (Human), UniProt Q92794); assay: biochemical
Chain of MOZ-KAT6A (Q92794 other isoform, or with tags, fused parts or gaps): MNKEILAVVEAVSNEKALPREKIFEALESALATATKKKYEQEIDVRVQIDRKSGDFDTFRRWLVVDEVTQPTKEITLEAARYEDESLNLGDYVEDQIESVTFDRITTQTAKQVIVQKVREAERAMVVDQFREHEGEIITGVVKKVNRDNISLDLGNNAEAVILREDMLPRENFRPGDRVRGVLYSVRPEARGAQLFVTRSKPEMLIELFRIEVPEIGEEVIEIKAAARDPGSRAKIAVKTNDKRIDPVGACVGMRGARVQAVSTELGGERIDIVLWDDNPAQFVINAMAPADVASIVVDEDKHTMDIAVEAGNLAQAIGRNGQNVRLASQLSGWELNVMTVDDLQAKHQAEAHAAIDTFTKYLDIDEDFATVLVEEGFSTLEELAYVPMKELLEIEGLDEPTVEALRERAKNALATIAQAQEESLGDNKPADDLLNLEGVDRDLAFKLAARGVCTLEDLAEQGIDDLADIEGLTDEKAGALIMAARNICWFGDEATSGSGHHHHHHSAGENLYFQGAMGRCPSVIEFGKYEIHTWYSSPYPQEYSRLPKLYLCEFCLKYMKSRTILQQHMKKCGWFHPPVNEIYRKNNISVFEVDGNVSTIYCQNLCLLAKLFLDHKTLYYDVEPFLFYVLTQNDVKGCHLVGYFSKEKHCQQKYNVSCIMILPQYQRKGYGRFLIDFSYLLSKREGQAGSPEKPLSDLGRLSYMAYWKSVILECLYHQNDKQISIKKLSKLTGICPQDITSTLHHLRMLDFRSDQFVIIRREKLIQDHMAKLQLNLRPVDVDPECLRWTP

[4] = test system: histone H3 Lysine 14 acetylation in U2OS cells; assay: Histone H3 Lysine 14 Acetylation Biomarker Assay; format: cell-based; conditions: Homo sapiens, serum free medium, 24 hours incubation
Procedure: Compounds were tested for their ability to inhibit acetylation of the histone H3 Lysine 14 marker in the following assay:
The cell line U2OS was seeded at a density of 3,000 cells per well in 384-well optical quality tissue culture plates in RPMI medium supplemented with 10% foetal bovine serum and 10 mM Hepes. The cells were allowed to adhere for 24 hours under standard culture conditions (37 degree Celsius, 5% CO2). At the end of this period the cells were washed with serum free medium. […] After incubation for 24 hours, the cells were fixed with 4% formaldehyde in PBS for 15 minutes at room temperature, washed with phosphate buffer saline and blocked with blocking buffer containing 0.2% TritonX100 and 2% BSA. Anti-H3K14ac specific antibody (Cell Signalling Technologies) in blocking buffer was added and incubated overnight at 4 degree Celsius. After washing, a secondary antibody labelled with AlexaFluor 488 dye (ThermoFisher) and Hoechst 33342 (1 μg/mL, Life Technologies) were added for 2 hours incubation at room temperature. Plates were washed and read on a PerkinElmer Opera HCS high content imaging platform. Using a Columbus image analysis pipeline, individual nuclei were located by Hoechst 33342 stain and the acetylation level was calculated from the AlexaFluor 488-related intensity in the same area.

[5] = test system: histone H2A.Z Lysine 7 acetylation in U2OS cells; assay: H2A.Z Lysine 7 Acetylation Biomarker Assay; format: cell-based; conditions: Homo sapiens, serum free medium, 24 hours incubation
Procedure: Compounds were tested for their ability to inhibit the histone H2A.Z Lysine 7 acetylation marker in the following assay: The cell line U2OS was seeded at a density of 3,000 cells per well in 384-well optical quality tissue culture plates in RPMI medium supplemented with 10% foetal bovine serum and 10 mM Hepes. The cells were allowed to adhere for 24 hours under standard culture conditions (37 degree Celsius, 5% CO2). At the end of this period the cells were washed with serum free medium. […] 2018, at 30 μM concentration. After incubation for 24 hours, the cells were fixed with 4% formaldehyde in PBS for 15 minutes at room temperature, washed with phosphate buffer saline and blocked with blocking buffer containing 0.2% TritonX100 and 2% BSA. Anti-H2A.ZK7ac specific antibody (Abcam) in blocking buffer was added and incubated overnight at 4 degree Celsius. After washing, a secondary antibody labelled with AlexaFluor 488 dye (ThermoFisher) and Hoechst 33342 (1 μg/mL, Life Technologies) were added for 2 hours incubation at room temperature. Plates were washed and read on a PerkinElmer Opera HCS high content imaging platform. Using a Columbus image analysis pipeline, individual nuclei were located by Hoechst 33342 stain and the acetylation level was calculated from the AlexaFluor 488-related intensity in the same area.

[6] = target: TIP60-KAT5 (Homo sapiens (Human), UniProt Q92993); assay: biochemical
Chain of TIP60-KAT5 (Q92993 other isoform, or with tags, fused parts or gaps): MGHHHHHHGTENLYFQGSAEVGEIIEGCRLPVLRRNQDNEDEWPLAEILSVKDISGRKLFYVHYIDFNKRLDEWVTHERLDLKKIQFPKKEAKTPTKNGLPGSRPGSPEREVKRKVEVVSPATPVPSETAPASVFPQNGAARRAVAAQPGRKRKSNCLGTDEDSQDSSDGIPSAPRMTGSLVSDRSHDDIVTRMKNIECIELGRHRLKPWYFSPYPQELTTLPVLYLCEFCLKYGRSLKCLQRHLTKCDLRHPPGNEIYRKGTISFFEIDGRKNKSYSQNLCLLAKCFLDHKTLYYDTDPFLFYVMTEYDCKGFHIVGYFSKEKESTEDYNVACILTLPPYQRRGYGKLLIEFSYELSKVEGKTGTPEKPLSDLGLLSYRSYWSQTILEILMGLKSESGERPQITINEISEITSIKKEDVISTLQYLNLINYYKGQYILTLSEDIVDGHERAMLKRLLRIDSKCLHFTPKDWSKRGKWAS

[7] = target: KAT8 (Homo sapiens (Human), UniProt Q9H7Z6); assay: KAT assay (SAMDI mass spectrometry), KAT8; format: biochemical; conditions: 1 μM AcCoA
Procedure: (§1) Prepare 10 mM stock solutions in 100% DMSO from solid material • 2. Serial dilute 10 mM, 1 mM or 0.1 mM compound stocks 3-fold in 100% DMSO for 11-point dose response
(§2) Prepare 1× assay buffer containing 10 mM Tris HCL pH 8.0, 2.5 mM NaCl, 0.5 mM EDTA, 0.005% BSG and 0.02% Tween-20 • 2. Dilute Histone peptide (CPC Scientific) and AcCoA (Sigma) together in assay buffer to 2×. • 3. Dilute KAT enzyme in assay buffer to 2×.
(§3) Enzyme reaction • 1. Final reaction conditions for each KAT assay in a 20 ul assay reaction volume: • i. KAT5 25 nM, 1 uM AcCoA, 2 uM H4 1-21 peptide, 30-minute reaction • ii. KAT6A 15 nM, 1 uM AcCoA, 2 uM H3 1-21 peptide, 45-minute reaction • iii. KAT6B 25 nM, 1 uM AcCoA, 2 uM H3 1-21 peptide, 60-minute reaction • iv. KAT7 12.5 nM, 1 uM AcCoA, 2 uM H3 1-21 peptide, 45-minute reaction • v. KAT8 15 nM, 1 uM AcCoA, 2 uM H3 1-21 peptide, 45-minute reaction • 2. Add 0.5 ul of diluted compound to the assay plate (384-well V-bottom polypropylene plates) or 0.5 ul of DMSO for control wells. • 3. Add 10 ul of 2× Histone peptide/2×AcCoA mix to the assay plate. • 4. Add 10 ul of 2× enzyme to the assay plate. • 5. Stop the reaction after the indicated time with the addition of 2 ul of 5% formic acid • 6. Each reaction was analyzed using self-assembled monolayer desorption/ionization time-of-flight mass spectrometry (Mrksich, Milan (2008) Mass Spectrometry of Self-Assembled Monolayers: A New Tool for Molecular Surface Science ACS Nano 2008 2 (1), 7-18; SAMDI Tech, Inc. (Chicago, Ill.)). • 7. Area under the curve (AUC) for both substrate and product peaks was determined for KAT5 at M.W. 2561 [Substrate+H]^+ and 2603 [Product+H]^+ with a +/−1 Da tolerance, respectively • 8. Area under the curve (AUC) for both substrate and product peaks was determined for KAT6a, KAT6B, KAT7 and KAT8 at M.W. 2723 [Substrate+H]^+ and 2765 [Product+H]^+ with a +/−1 Da tolerance, respectively. […] Percent conversion to product was calculated by: AUCProduct/(AUCsubstrate+AUCProduct).
(§4) IC50 values were determined by fitting the % conversion at each inhibitor concentration to the 4-parameter IC50 equation using Pfizer proprietary curve fitting software. • 2. Ki values were determined by fitting the % conversion at each inhibitor concentration to the Morrison equation for tightbinding competitive inhibitors using Pfizer proprietary curve fitting software.
(§5) KAT enzymes were expressed using a baculovirus expression system and purified at Pfizer, La Jolla. […] Acetyl coenzyme A was purchased from Sigma-Aldrich (St. Louis, Mo.). All other biochemical reagents were purchased from Sigma-Aldrich or ThermoFisher Scientific (Waltham, Mass.).
(§6) KAT assays were performed at room temperature in assay buffer containing 1 μM AcCoA, 2 μM histone peptide, 10 mM Tris HCL pH 8.0, 2.5 mM NaCl, 0.5 mM EDTA, 0.005% BSG and 0.02% Tween-20. 10 ul of 2× Histone peptide/AcCoA mix was added to a 384-well V-bottom polypropylene assay plate containing 0.5 ul of serially diluted test compound in 100% dimethyl sulfoxide (DMSO). To start the reaction, 10 ul of 2× enzyme solution was added to the assay plate. KAT assays were terminated after 30-60 minutes with the addition of 2 ul of 5% formic acid. All assays used histone H3 (1-21) peptide except for the KAT5 assay which used histone H4 (1-21) peptide. The final enzyme concentration for each KAT was as follows: KAT5, 25 nM; KAT6A, 15 nM; KAT6B, 25 nM; KAT7, 12.5 nM; KAT8 15 nM. Each reaction was analyzed using self-assembled monolayer desorption/ionization time-of-flight mass spectrometry (Mrksich, Milan (2008) Mass Spectrometry of Self-Assembled Monolayers: A New Tool for Molecular Surface Science ACS Nano 2008 2 (1), 7-18; SAMDI Tech, Inc. (Chicago, Ill.)).
(§7) Area under the curve (AUC) for both substrate and product peaks was determined for KAT5 at M.W. 2561 [Substrate+H]^+ and 2603 [Product+H]^+ with a +/−1 Da tolerance, respectively.

[8] = target: KAT5 (Homo sapiens (Human), UniProt Q92993); assay: KAT assay (SAMDI mass spectrometry), KAT5; format: biochemical; conditions: 1 μM AcCoA;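 also: Baculovirus-expressed KAT5 acetylating a histone H4 peptide at room temperature, read as percent conversion to product, Ki from a Morrison tight-binding competitive fit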
Chain of KAT5 (Q92993 whole entry): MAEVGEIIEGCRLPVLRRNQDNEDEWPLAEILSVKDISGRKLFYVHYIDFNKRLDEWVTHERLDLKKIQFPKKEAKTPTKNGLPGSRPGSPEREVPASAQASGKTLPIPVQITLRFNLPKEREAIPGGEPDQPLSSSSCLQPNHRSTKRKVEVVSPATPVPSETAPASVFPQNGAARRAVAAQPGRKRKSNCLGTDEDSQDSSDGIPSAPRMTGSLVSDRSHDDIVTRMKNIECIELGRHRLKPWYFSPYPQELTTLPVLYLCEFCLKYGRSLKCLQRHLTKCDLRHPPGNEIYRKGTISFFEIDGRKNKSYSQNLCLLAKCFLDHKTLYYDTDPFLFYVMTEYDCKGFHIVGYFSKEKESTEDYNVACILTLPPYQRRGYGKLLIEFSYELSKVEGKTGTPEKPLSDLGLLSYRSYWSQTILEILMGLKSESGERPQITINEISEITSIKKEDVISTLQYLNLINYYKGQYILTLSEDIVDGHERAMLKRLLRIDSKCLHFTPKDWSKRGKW
Procedure: as §1, §2, §3, §4, §5, §6, §7

[9] = target: KAT6A (Homo sapiens (Human), UniProt Q92794); assay: KAT assay (SAMDI mass spectrometry), KAT6A; format: biochemical; conditions: KAT6a Ki at 1 μM AcCoA, 1 μM AcCoA;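 also: Baculovirus-expressed KAT6A acetylating histone H3 (1-21) peptide (2 µM), 30-60 min at room temperature, % product conversion fitted to Morrison equation for tight-binding competitive inhibitors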
Procedure: as §1, §2, §3, §4, §5, §6, §7

[10] = target: KAT7 (Homo sapiens (Human), UniProt O95251); assay: KAT assay (SAMDI mass spectrometry), KAT7; format: biochemical; conditions: KAT7 Ki at 1 μM AcCoA;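 also: Baculovirus-expressed enzyme acetylating a histone peptide at room temperature, percent conversion from product and substrate peak areas, Ki from a Morrison tight-binding competitive fit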
Chain of KAT7 (O95251 whole entry): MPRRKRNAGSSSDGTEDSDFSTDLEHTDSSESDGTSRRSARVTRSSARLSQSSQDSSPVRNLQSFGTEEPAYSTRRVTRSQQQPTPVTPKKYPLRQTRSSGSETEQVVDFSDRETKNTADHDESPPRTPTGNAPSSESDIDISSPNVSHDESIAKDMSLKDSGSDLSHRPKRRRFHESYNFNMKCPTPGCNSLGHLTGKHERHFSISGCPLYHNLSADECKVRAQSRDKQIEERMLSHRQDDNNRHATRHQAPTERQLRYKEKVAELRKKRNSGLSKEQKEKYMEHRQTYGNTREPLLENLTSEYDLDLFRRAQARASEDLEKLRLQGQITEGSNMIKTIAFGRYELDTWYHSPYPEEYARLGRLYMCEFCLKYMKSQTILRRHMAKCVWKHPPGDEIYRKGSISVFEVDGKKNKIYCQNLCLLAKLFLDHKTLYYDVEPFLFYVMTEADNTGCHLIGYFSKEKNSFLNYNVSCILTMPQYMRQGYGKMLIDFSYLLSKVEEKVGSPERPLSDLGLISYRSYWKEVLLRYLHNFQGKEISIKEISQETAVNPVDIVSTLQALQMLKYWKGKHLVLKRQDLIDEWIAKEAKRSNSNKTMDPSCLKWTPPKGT
Procedure: as §1, §2, §3, §4, §5, §6, §7

[11] = target: KAT6B (Homo sapiens (Human), UniProt Q8WYB5); assay: KAT assay (SAMDI mass spectrometry), KAT6B; format: biochemical; conditions: 1 μM AcCoA
Chain of KAT6B (Q8WYB5 whole entry): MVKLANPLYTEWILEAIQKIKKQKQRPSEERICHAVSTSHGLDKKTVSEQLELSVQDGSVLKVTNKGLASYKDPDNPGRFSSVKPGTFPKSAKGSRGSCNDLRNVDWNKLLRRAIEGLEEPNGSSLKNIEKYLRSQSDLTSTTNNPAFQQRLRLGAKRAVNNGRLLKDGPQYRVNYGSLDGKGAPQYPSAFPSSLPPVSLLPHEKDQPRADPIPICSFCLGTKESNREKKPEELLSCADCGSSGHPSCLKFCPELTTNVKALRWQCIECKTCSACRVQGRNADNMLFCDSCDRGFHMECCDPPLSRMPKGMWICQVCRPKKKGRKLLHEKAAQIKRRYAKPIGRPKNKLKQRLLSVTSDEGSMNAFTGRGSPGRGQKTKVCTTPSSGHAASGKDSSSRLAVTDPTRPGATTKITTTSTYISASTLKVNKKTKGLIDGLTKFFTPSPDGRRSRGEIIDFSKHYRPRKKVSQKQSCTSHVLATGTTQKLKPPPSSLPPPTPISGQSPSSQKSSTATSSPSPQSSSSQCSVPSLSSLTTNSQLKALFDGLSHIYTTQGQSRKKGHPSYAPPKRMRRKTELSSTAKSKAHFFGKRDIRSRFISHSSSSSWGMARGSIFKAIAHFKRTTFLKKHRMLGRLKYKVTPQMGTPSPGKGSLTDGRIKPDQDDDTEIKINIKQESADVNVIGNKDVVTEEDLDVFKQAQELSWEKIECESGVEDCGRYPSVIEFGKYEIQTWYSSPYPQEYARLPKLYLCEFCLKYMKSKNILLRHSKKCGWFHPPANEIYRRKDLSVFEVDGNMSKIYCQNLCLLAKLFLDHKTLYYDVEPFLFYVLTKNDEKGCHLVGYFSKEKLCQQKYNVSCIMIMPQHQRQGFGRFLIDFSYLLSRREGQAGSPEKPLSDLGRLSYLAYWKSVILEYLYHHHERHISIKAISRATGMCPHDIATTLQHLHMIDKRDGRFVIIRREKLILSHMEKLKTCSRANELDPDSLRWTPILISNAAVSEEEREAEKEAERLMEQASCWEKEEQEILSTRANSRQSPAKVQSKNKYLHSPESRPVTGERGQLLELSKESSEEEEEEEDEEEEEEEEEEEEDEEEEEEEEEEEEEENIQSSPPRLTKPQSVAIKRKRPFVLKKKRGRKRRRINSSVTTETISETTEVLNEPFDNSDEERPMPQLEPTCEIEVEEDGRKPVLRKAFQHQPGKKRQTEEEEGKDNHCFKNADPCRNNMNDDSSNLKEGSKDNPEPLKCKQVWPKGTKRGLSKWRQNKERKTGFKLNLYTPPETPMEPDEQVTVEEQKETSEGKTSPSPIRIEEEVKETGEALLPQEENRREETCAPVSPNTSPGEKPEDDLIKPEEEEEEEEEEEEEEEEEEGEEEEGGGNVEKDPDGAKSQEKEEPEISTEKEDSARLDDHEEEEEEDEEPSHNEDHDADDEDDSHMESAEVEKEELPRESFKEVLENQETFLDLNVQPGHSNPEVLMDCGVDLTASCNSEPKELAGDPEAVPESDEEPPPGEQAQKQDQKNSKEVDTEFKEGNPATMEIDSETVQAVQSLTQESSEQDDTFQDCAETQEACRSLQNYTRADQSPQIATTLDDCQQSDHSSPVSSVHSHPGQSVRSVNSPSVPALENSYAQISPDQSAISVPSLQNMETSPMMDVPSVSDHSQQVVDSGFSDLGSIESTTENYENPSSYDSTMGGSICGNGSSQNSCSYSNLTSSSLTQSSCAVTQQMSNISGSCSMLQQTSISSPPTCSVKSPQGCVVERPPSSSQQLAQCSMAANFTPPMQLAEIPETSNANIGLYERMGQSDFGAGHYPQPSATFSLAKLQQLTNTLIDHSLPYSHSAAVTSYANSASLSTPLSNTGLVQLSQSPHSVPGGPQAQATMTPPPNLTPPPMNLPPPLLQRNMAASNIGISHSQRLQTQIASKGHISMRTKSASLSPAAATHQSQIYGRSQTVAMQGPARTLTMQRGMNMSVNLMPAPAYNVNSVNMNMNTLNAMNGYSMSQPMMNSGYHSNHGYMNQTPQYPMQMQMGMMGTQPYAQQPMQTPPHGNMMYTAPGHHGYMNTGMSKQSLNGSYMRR
Procedure: as §1, §2, §3, §4, §5, §6, §7

Row | SMILES | IC50 [1] [nM] | IC50 [2] [nM] | IC50 [3] [nM] | IC50 [4] [nM] | IC50 [5] [nM] | IC50 [6] [nM] | Ki [7] [nM] | Ki [8] [nM] | Ki [9] [nM] | Ki [10] [nM] | Ki [11] [nM]
1 | COc1cccc(OC)c1S(=O)(=O)Nc1noc2cc(Cn3cccn3)cc(OC)c12 [Example 98, N-(6-((1H-pyrazol-1-yl)methyl)-4-methoxybenzo[d]isoxazol-3-yl)-2,6-dimethoxybenzenesulfonamide] | 0.6 |  |  |  |  |  |  |  |  |  | 
2 | COc1cccc(OC)c1S(=O)(=O)Nc1noc2cc(Cn3cc(C)cn3)cc(OC)c12 [Example 100, 2,6-dimethoxy-N-(4-methoxy-6-((4-methyl-1H-pyrazol-1-yl)methyl)benzo[d]isoxazol-3-yl)benzenesulfonamide] | 46 | 340 | 30 | 1360 | 15000 | 11200 | 4950 | 6220 | 40.3 | 610 | 58.3
3 | COc1cccc(OC)c1S(=O)(=O)Nc1noc2c(-c3cnn(C)c3)cc(C)cc12 [Example 102, 2,6-dimethoxy-N-(5-methyl-7-(1-methyl-1H-pyrazol-4-yl)benzo[d]isoxazol-3-yl)benzenesulfonamide] |  | 1400 | 48800 | 28300 | > 40000 | > 125000 |  |  |  |  | 
